Assay results: patent publication US4024277A, “Phosphoro-aminosulfenyl derivatives of benzofuran carbamates” (priority 1975, dated 1977)

How the values were obtained:
confused flour beetle [1] = assay: Initial insecticidal activity, confused flour beetle; type: in vivo, Tribolium confusum Jacquelin duVal; details: Tribolium confusum, 48-hour exposure, read-out: % Kill, Confused Flour Beetle
Source text: (§1) a. Initial Insecticidal Activity
(§2) In this test, a candidate insecticide, in solution, is applied to either infested or uninfested plants or containers by spraying or dipping. (The preferred test procedure varies with insect species. The dipping method is better than the spraying method, and vice versa, for certain species of insects. Also some species are better adapted to the test by infesting after the chemical treatment rather than before.) Once the tests have been established, a 48-hour exposure period is observed before reading the tests. Insect species included in these tests are Mexican bean beetle (Epilachna varivestis Mulsant), pea aphid [Acyrthosiphon pisum (Harris)], southern armyworm [Spodoptera eridania (Cramer)], twospotted spider mite (Tetranychus urticae Koch), large milkweed bug [Oncopeltus fasciatus (Dallas)], plum curculio [Conotrachelus nenuphar (Herbst)], confused flour beetle (Tribolium confusum Jacquelin duVal) and granary weevil [Sitophilus granarius (Linnaeus)]. Test results are set forth in Table I. A control sample, comprising the solution without the candidate insecticide, is also included.

southern armyworm [2] = assay: Seven-day residual insecticidal activity, southern armyworm; type: in vivo, Spodoptera eridania (Cramer); details: Spodoptera eridania, 48-hour exposure, read-out: % Kill, Southern Armyworm
Source text: (§3) b. Seven-Day Residual Insecticidal Activity
(§4) In this test, a candidate insecticide, in solution, is applied to uninfested plants or containers by dipping or spraying. A seven-day holding period is necessary before infestation. A 48-hour exposure period is observed before evaluation of the tests. The insect species used in this type of test are the same as those listed under initial activity.

confused flour beetle [3] = assay: Seven-day residual insecticidal activity, confused flour beetle; type: in vivo, Tribolium confusum Jacquelin duVal; details: Tribolium confusum, 48-hour exposure, read-out: % Kill, Confused Flour Beetle
Source text: as §3, §4

southern armyworm [4] = assay: Systemic insecticidal activity (soil/water), southern armyworm; type: in vivo, Spodoptera eridania (Cramer); details: Spodoptera eridania, 48-hour exposure, read-out: % Kill, Southern Armyworm
Protocol: (§5) c. Systemic Insecticidal Acitivity (Soil/Water)
(§6) In this test, a candidate insecticide, in solution, is added to the soil of either uninfested pinto bean seedlings (Phaseolus vulgaris) or uninfested broad bean seedlings (Vicia faba var. Windsor). The plant species used depend on the insect species in the test. Usually, a 72-hour translocation period before infestation is required, followed by a 48-hour exposure period, before evaluation of the tests. The insect species used in the systemic tests are Mexican bean beetle, southern armyworm, pea aphid, and twospotted spider mite.

southern armyworm [5] = assay: Initial insecticidal activity, southern armyworm; type: in vivo, Spodoptera eridania (Cramer); details: Spodoptera eridania, 48-hour exposure, read-out: % Kill, Southern Armyworm
Source text: as §1, §2

twospotted spider mite [6] = assay: Seven-day residual insecticidal activity, twospotted spider mite; type: in vivo, Tetranychus urticae Koch; details: Tetranychus urticae, 48-hour exposure, read-out: % Kill, Twospotted Spider Mite
Source text: as §3, §4

Mexican bean beetle [7] = assay: Seven-day residual insecticidal activity, Mexican bean beetle; type: in vivo, Epilachna varivestis Mulsant; details: Epilachna varivestis, 48-hour exposure, read-out: % Kill, Mexican Bean Beetle
Source text: as §3, §4

plum curculio [8] = assay: Initial insecticidal activity, plum curculio; type: in vivo, Conotrachelus nenuphar (Herbst); details: Conotrachelus nenuphar, 48-hour exposure, read-out: % Kill, Plum Curculio
Source text: as §1, §2

large milkweed bug [9] = assay: Seven-day residual insecticidal activity, milkweed bug; type: in vivo, Oncopeltus fasciatus (Dallas); details: Oncopeltus fasciatus, 48-hour exposure, read-out: % Kill, Milkweed Bug
Source text: as §3, §4

large milkweed bug [10] = assay: Initial insecticidal activity, milkweed bug; type: in vivo, Oncopeltus fasciatus (Dallas); details: Oncopeltus fasciatus, 48-hour exposure, read-out: % Kill, Milkweed Bug
Source text: as §1, §2

twospotted spider mite [11] = assay: Systemic insecticidal activity (soil/water), twospotted spider mite; type: in vivo, Tetranychus urticae Koch; details: Tetranychus urticae, 48-hour exposure, read-out: % Kill, Twospotted Spider Mite
Protocol: as §5, §6

pea aphid [12] = assay: Seven-day residual insecticidal activity, pea aphid; type: in vivo, Acyrthosiphon pisum (Harris); details: Acyrthosiphon pisum, 48-hour exposure, read-out: % Kill, Pea Aphid
Source text: as §3, §4

Mexican bean beetle [13] = assay: Systemic insecticidal activity (soil/water), Mexican bean beetle; type: in vivo, Epilachna varivestis Mulsant; details: Epilachna varivestis, 48-hour exposure, read-out: % Kill, Mexican Bean Beetle
Protocol: as §5, §6

Mexican bean beetle [14] = assay: Initial insecticidal activity, Mexican bean beetle; type: in vivo, Epilachna varivestis Mulsant; details: Epilachna varivestis, 48-hour exposure, read-out: % Kill, Mexican Bean Beetle
Source text: as §1, §2

twospotted spider mite [15] = assay: Ovicidal activity against the twospotted spider mite; type: in vivo, Tetranychus urticae Koch; details: Tetranychus urticae, eggs, 7 to 10 days, read-out: % Kill (ovicidal)
Protocol: d. Ovicidal Activity Against the Twospotted Spider Mite
In this test, Pinto bean seedlings are infested with female twospotted spider mites; about 3-4 hours are allowed for egg deposition. Plants are then dipped in TEPP (tetraethylpyrophosphate-commercial emulsifiable concentrate (EC)) solution containing 936 ppm of active ingredient. TEPP kills motile forms on the leaf and promptly degrades without effecting the egg stage. Two to three hours after TEPP treatment the plants are again dipped -- this time into a candidate insecticide solution. The test plants are maintained for 7 to 10 days. Termination of exposure is determined by the time required to attain complete hatch in the untreated check.

twospotted spider mite [16] = assay: Initial insecticidal activity, twospotted spider mite; type: in vivo, Tetranychus urticae Koch; details: Tetranychus urticae, 48-hour exposure, read-out: % Kill, Twospotted Spider Mite
Source text: as §1, §2

pea aphid [17] = assay: Systemic insecticidal activity (soil/water), pea aphid; type: in vivo, Acyrthosiphon pisum (Harris); details: Acyrthosiphon pisum, 48-hour exposure, read-out: % Kill, Pea Aphid
Protocol: as §5, §6

pea aphid [18] = assay: Initial insecticidal activity, pea aphid; type: in vivo, Acyrthosiphon pisum (Harris); details: Acyrthosiphon pisum, 48-hour exposure, read-out: % Kill, Pea Aphid
Source text: as §1, §2

plum curculio [19] = assay: Seven-day residual insecticidal activity, plum curculio; type: in vivo, Conotrachelus nenuphar (Herbst); details: Conotrachelus nenuphar, 48-hour exposure, read-out: % Kill, Plum Curculio
Source text: as §3, §4

[20] = Mammalian toxicity, 14-day LD50 in rats; details: rat, in vivo, Wistar derived albino rats, method of Miller and Tainter
Source text: The compounds of this invention are characterized by advantageous mammalian toxicity values when compared with values for related compounds. This is shown by comparative values obtained with Wistar derived albino rats in 14-day tests. The animals were fed, housed and watered in accordance with standard laboratory procedures. The 14-day LD50 determination was estimated in accord with the method of Miller and Tainter (Experimental Biology and Medicine, 57, pp. 261-264, 1944).

[21] = tested on: beetles, true bugs, aphids and acarids; details: U.S. Pat. No. 3,474,171; cited from earlier work

CCCN(SN(C)C(=O)Oc1cccc2c1OC(C)(C)C2)P(=O)(OCC)OCC [4(c), 2,3-dihydro-2,2-dimethyl-7-benzofuranyl [(N-diethoxyphosphinyl) (N-n-propyl)aminosulfenyl][methyl]carbamate]
mortality at 39 ppm (confused flour beetle [1]): 0%
mortality at 156 ppm (confused flour beetle [1]): 8%
mortality at 1250 ppm (confused flour beetle [1]): 65%
mortality at 39 ppm (southern armyworm [2]; 39 ppm): 0%
mortality at 156 ppm (southern armyworm [2]): 5%
mortality at 1250 ppm (southern armyworm [2]): 60%
mortality at 39 ppm (confused flour beetle [3]): 0%
mortality at 156 ppm (confused flour beetle [3]): 0%
mortality at 1250 ppm (confused flour beetle [3]): 0%
mortality at 10 ppm (southern armyworm [4]; 10 ppm): 0%
mortality at 39 ppm (southern armyworm [4]): 0%
mortality at 156 ppm (southern armyworm [4]): 42%
mortality at 39 ppm (southern armyworm [5]): 0%
mortality at 156 ppm (southern armyworm [5]): 29%
mortality at 1250 ppm (southern armyworm [5]): 100%
mortality at 39 ppm (twospotted spider mite [6]; 39 ppm): 0%
mortality at 156 ppm (twospotted spider mite [6]): 0%
mortality at 1250 ppm (twospotted spider mite [6]): 2%
mortality at 39 ppm (Mexican bean beetle [7]): 27%
mortality at 156 ppm (Mexican bean beetle [7]): 62%
mortality at 1250 ppm (Mexican bean beetle [7]): 100%
mortality at 39 ppm (plum curculio [8]): 0%
mortality at 156 ppm (plum curculio [8]): 50%
mortality at 1250 ppm (plum curculio [8]): 10%
mortality at 39 ppm (large milkweed bug [9]): 75%
mortality at 156 ppm (large milkweed bug [9]): 95%
mortality at 1250 ppm (large milkweed bug [9]): 100%
mortality at 39 ppm (large milkweed bug [10]): 90%
mortality at 156 ppm (large milkweed bug [10]): 100%
mortality at 1250 ppm (large milkweed bug [10]): 100%
mortality at 10 ppm (twospotted spider mite [11]; 10 ppm): 0%
mortality at 39 ppm (twospotted spider mite [11]): 0%
mortality at 156 ppm (twospotted spider mite [11]): 7%
mortality at 39 ppm (pea aphid [12]): 0%
mortality at 156 ppm (pea aphid [12]): 0%
mortality at 1250 ppm (pea aphid [12]): 100%
mortality at 10 ppm (Mexican bean beetle [13]): 7%
mortality at 39 ppm (Mexican bean beetle [13]): 65%
mortality at 156 ppm (Mexican bean beetle [13]): 94%
mortality at 39 ppm (Mexican bean beetle [14]): 86%
mortality at 156 ppm (Mexican bean beetle [14]): 100%
mortality at 1250 ppm (Mexican bean beetle [14]): 95%
mortality at 156 ppm (twospotted spider mite [15]): 0%
mortality at 1250 ppm (twospotted spider mite [15]): 66%
mortality at 39 ppm (twospotted spider mite [16]): 8%
mortality at 156 ppm (twospotted spider mite [16]): 37%
mortality at 1250 ppm (twospotted spider mite [16]): 100%
mortality at 10 ppm (pea aphid [17]): 0%
mortality at 39 ppm (pea aphid [17]): 93%
mortality at 156 ppm (pea aphid [17]): 100%
mortality at 39 ppm (pea aphid [18]): 33%
mortality at 156 ppm (pea aphid [18]): 100%
mortality at 1250 ppm (pea aphid [18]): 100%
mortality at 39 ppm (plum curculio [19]): 0%
mortality at 156 ppm (plum curculio [19]): 0%
mortality at 1250 ppm (plum curculio [19]): 19%

CCOP(=O)(OCC)N(CCc1ccccc1)SN(C)C(=O)Oc1cccc2c1OC(C)(C)C2 [9(c), 2,3-Dihydro-2,2-dimethyl-7-benzofuranyl [(N-diethoxyphosphinyl)(N-2-phenylethyl)aminosulfenyl][methyl-carbamate]]
mortality at 39 ppm (confused flour beetle [1]): 0%
mortality at 156 ppm (confused flour beetle [1]): 3%
mortality at 1250 ppm (confused flour beetle [1]): 8%
mortality at 156 ppm (southern armyworm [2]): 0%
mortality at 1250 ppm (southern armyworm [2]): 25%
mortality at 39 ppm (confused flour beetle [3]): 0%
mortality at 156 ppm (confused flour beetle [3]): 0%
mortality at 1250 ppm (confused flour beetle [3]): 12%
mortality at 39 ppm (southern armyworm [4]): 0%
mortality at 156 ppm (southern armyworm [4]): 21%
mortality at 312 ppm (southern armyworm [4]; 312 ppm): 80%
mortality at 39 ppm (southern armyworm [5]): 0%
mortality at 156 ppm (southern armyworm [5]): 8%
mortality at 1250 ppm (southern armyworm [5]): 79%
mortality at 156 ppm (twospotted spider mite [6]): 0%
mortality at 1250 ppm (twospotted spider mite [6]): 0%
mortality at 39 ppm (Mexican bean beetle [7]): 8%
mortality at 156 ppm (Mexican bean beetle [7]): 100%
mortality at 1250 ppm (Mexican bean beetle [7]): 100%
mortality at 39 ppm (plum curculio [8]): 0%
mortality at 156 ppm (plum curculio [8]): 5%
mortality at 1250 ppm (plum curculio [8]): 94%
mortality at 39 ppm (large milkweed bug [9]): 0%
mortality at 156 ppm (large milkweed bug [9]): 85%
mortality at 1250 ppm (large milkweed bug [9]): 100%
mortality at 39 ppm (large milkweed bug [10]): 6%
mortality at 156 ppm (large milkweed bug [10]): 100%
mortality at 1250 ppm (large milkweed bug [10]): 100%
mortality at 39 ppm (twospotted spider mite [11]): 0%
mortality at 156 ppm (twospotted spider mite [11]): 0%
mortality at 312 ppm (twospotted spider mite [11]; 312 ppm): 2%
mortality at 39 ppm (pea aphid [12]): 6%
mortality at 156 ppm (pea aphid [12]): 0%
mortality at 1250 ppm (pea aphid [12]): 0%
mortality at 5 ppm (Mexican bean beetle [13]; 5 ppm): 0%
mortality at 10 ppm (Mexican bean beetle [13]): 0%
mortality at 39 ppm (Mexican bean beetle [13]): 0%
mortality at 156 ppm (Mexican bean beetle [13]): 65%
mortality at 39 ppm (Mexican bean beetle [14]): 60%
mortality at 156 ppm (Mexican bean beetle [14]): 100%
mortality at 1250 ppm (Mexican bean beetle [14]): 100%
mortality at 156 ppm (twospotted spider mite [15]): 0%
mortality at 1250 ppm (twospotted spider mite [15]): 94%
mortality at 39 ppm (twospotted spider mite [16]): 3%
mortality at 156 ppm (twospotted spider mite [16]): 6%
mortality at 1250 ppm (twospotted spider mite [16]): 98%
mortality at 5 ppm (pea aphid [17]; 5 ppm): 0%
mortality at 10 ppm (pea aphid [17]): 0%
mortality at 39 ppm (pea aphid [17]): 0%
mortality at 156 ppm (pea aphid [17]): 100%
mortality at 39 ppm (pea aphid [18]): 0%
mortality at 156 ppm (pea aphid [18]): 0%
mortality at 1250 ppm (pea aphid [18]): 100%
mortality at 39 ppm (plum curculio [19]): 0%
mortality at 156 ppm (plum curculio [19]): 0%
mortality at 1250 ppm (plum curculio [19]): 0%

CNC(=O)Oc1cccc2c1OC(C)(C)C2 [carbofuran, 2,3-dihydro-2,2-dimethyl-7-benzofuranyl methyl-carbamate, reference compound]
LD50 at 336 h [20]: 12.2 mg/kg
control of beetles, true bugs, aphids and acarids [21]: effective in control of beetles, true bugs, aphids and acarids
